Patent US8470822B2, “Folate mimetics and folate-receptor binding conjugates thereof” (Purdue Research Foundation, priority 2001, dated 2013)
One block for each compound: values may come before it.

Tests used:
[1] = target: T1, folate receptor on KB cells (Homo sapiens, UniProt P15328); experiment: Relative binding affinity: competition with 3H-folic acid for binding to KB cells; conditions: 100 nM 3H-folic acid, 15 minutes on ice; for relative binding activity compared to folic acid: folic acid set to 1; for EC50: read-out: EC50 (displacement of 3H-folic acid bound to folate receptor)
T1 construct: host or cells: KB cells (intact, trypsinized, suspended)
T1 sequence (P15328 25-234): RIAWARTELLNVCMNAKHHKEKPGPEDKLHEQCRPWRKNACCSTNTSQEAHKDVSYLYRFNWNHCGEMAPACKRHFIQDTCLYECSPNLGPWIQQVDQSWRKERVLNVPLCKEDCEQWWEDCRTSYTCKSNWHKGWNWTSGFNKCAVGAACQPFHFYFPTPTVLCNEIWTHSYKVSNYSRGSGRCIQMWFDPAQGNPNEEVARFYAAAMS
Protocol: Relative binding affinity. […] The relative affinity of various folate derivatives was determined according to the method described by Westerhoff et al. (Mol. Pharm., 1995, 48:459-471) with slight modification. Briefly, folate receptor-positive KB cells were gently trypsinized in 0.25% trypsin in phosphate-buffered saline (PBS) at room temperature for 3 minutes and then diluted in folate-free RPMI 1640 media (FFRPMI) (Gibco) supplemented with 10% heat-inactivated fetal calf serum. Following a 5 minute 800×g spin and one PBS wash, the final cell pellet was suspended in FFRPMI (no serum). […] Samples were centrifuged at 10,000×g for 5 minutes, cell pellets were suspended in buffer, transferred to individual vials containing 5 mL of scintillation cocktail, and then counted for radioactivity.
Binding activity. The binding activity of pteroyl hydrazide and pteroylhydrazido-BTCA-DAS was determined using the assay described in Example IV.

[2] = test system: folate-receptor-positive human KB cell tumor xenografts; experiment: Biodistribution of 111In radiotracer in KB tumor-bearing athymic mice after intravenous administration; type: in vivo
Protocol: Our primary animal model for evaluation of the biodistribution and pharmacokinetics of folate-receptor-targeted radiopharmaceuticals has been athymic mice bearing subcutaneously implanted folate-receptor-positive human KB cell tumors. […] After 3 weeks on folate-free diet, mouse serum folate levels drop to 25±7 nM from the initial 720±260 nM serum folate level when the animals are fed normal rodent chow. This dietary intervention is believed to be a reasonable manipulation of the animal model, since the mice would have serum folate levels only slightly higher than the folate concentration of normal human serum. Thus, in these mouse biodistribution studies the radiotracer is competing for tumor folate receptors with physiologically relevant concentrations of endogenous unlabeled serum folate.
The substantial retention of ^111In in the kidneys is fully consistent with the binding of ^111In-CYK4-013 to tissue folate receptors, since the renal proximal tubule is a known normal tissue site of folate receptor expression. […] The behavior of the ^111In-CYK4-013 radiopharmaceutical in this animal model (Table 2) is very similar to that observed for ^111In-DTPA-Folate (Table 3).
Results. Similar to ^111In-DTPA-Folate, ^111In-CYK4-013 selectively localized in the folate-receptor-positive tumor xenografts, and afforded prolonged tumor retention of ^111In (5.4±0.8; 5.5±1.1; and 3.6±0.6% ID/g at 1 hour, 4 hours, and 24 hours, respectively) (Table 2). […] Blockable binding was also observed in the kidneys, where the folate receptor occurs in the proximal tubules.

[3] = 4 Hours Post Injection BLOCKED, Folic Acid Dose 495 ± 79 μg/kg, n = 4

SMILES: NNC(=O)c1ccc(NCc2cnc3nc(N)nc(O)c3n2)cc1 [Pteroyl hydrazide, pteroyl hydrazide]
- relative binding activity compared to folic acid [1]: 0.74
- EC50 [1]: 94 nM

SMILES: Nc1nc(O)c2nc(CNc3ccc(C(=O)O[C@H](C(=O)O)c4ccccc4)cc3)cnc2n1 [ACBP, (S)-α-carboxybenzoyl pteroate]
- relative binding activity compared to folic acid [1]: 0.46
- EC50 [1]: 204 nM

- relative binding activity compared to folic acid [1]: 0.48
- EC50 [1]: 193 nM
SMILES: Nc1nc2ncc(CNc3ccc(C(=O)NC(C(=O)O)c4ccccn4)cc3)nc2c(=O)[nH]1 (stereo not drawn) [Pte-AP, N-pteroyl-2-amino-2-carboxymethylpyridine]

- Percentage of Injected 111In Dose Per Gram: Blood ([2]; 1 Hour Post Injection, n = 4): 0.14 ± 0.03 % ID/g
- Percentage of Injected 111In Dose Per Gram: Heart ([2]; 1 Hour Post Injection, n = 4): 2.3 ± 0.4 % ID/g
- Percentage of Injected 111In Dose Per Gram: Kidney ([2]; 1 Hour Post Injection, n = 4): 90 ± 9 % ID/g
- Percentage of Injected 111In Dose Per Gram: Liver & Gall Bladder ([2]; 1 Hour Post Injection, n = 4): 4.0 ± 1.5 % ID/g
- Percentage of Injected 111In Dose Per Gram: Lungs ([2]; 1 Hour Post Injection, n = 4): 1.3 ± 0.1 % ID/g
- Percentage of Injected 111In Dose Per Gram: Muscle ([2]; 1 Hour Post Injection, n = 4): 3.5 ± 0.8 % ID/g
- Percentage of Injected 111In Dose Per Gram: Spleen ([2]; 1 Hour Post Injection, n = 4): 0.36 ± 0.03 % ID/g
- Percentage of Injected 111In Dose Per Gram: Stomach, Intestines & Contents ([2]; 1 Hour Post Injection, n = 4): 1.0 ± 0.2 % ID/g
- Percentage of Injected 111In Dose Per Gram: Tumor ([2]; 1 Hour Post Injection, n = 4): 5.3 ± 0.4 % ID/g
- Tumor/blood ratio ([2]; 1 Hour Post Injection, n = 4): 38 ± 7
- Tumor/kidney ratio ([2]; 1 Hour Post Injection, n = 4): 0.060 ± 0.011
- Tumor/liver ratio ([2]; 1 Hour Post Injection, n = 4): 1.5 ± 0.5
- Tumor/muscle ratio ([2]; 1 Hour Post Injection, n = 4): 1.6 ± 0.3
- Tumor/kidney ratio ([2]; 4 Hours Post Injection BLOCKED, Folic Acid Dose 495 ± 79 μg/kg): 0.050 ± 0.023
- Percentage of Injected 111In Dose Per Gram: Kidney ([2]; 4 Hours Post Injection BLOCKED, Folic Acid Dose 495 ± 79 μg/kg, n = 3, anomalous animal excluded): 2.3 ± 1.0 % ID/g
- Percentage of Injected 111In Dose Per Gram: Blood [2, 3]: 0.029 ± 0.011 % ID/g
- Percentage of Injected 111In Dose Per Gram: Heart [2, 3]: 0.022 ± 0.010 % ID/g
- Percentage of Injected 111In Dose Per Gram: Liver & Gall Bladder [2, 3]: 0.12 ± 0.03 % ID/g
- Percentage of Injected 111In Dose Per Gram: Lungs [2, 3]: 0.065 ± 0.021 % ID/g
- Percentage of Injected 111In Dose Per Gram: Muscle [2, 3]: 0.023 ± 0.013 % ID/g
- Percentage of Injected 111In Dose Per Gram: Spleen [2, 3]: 0.060 ± 0.021 % ID/g
- Percentage of Injected 111In Dose Per Gram: Stomach, Intestines & Contents [2, 3]: 0.49 ± 0.20 % ID/g
- Percentage of Injected 111In Dose Per Gram: Tumor [2, 3]: 0.16 ± 0.07 % ID/g
- Tumor/blood ratio [2, 3]: 5.5 ± 0.8
- Tumor/liver ratio [2, 3]: 1.4 ± 0.4
- Tumor/muscle ratio [2, 3]: 8.4 ± 3.8
- Percentage of Injected 111In Dose Per Gram: Blood ([2]; 4 Hours Post Injection, n = 4): 0.064 ± 0.007 % ID/g
- Percentage of Injected 111In Dose Per Gram: Heart ([2]; 4 Hours Post Injection, n = 4): 2.0 ± 0.3 % ID/g
- Percentage of Injected 111In Dose Per Gram: Kidney ([2]; 4 Hours Post Injection, n = 4): 85 ± 12 % ID/g
- Percentage of Injected 111In Dose Per Gram: Liver & Gall Bladder ([2]; 4 Hours Post Injection, n = 4): 2.2 ± 0.4 % ID/g
- Percentage of Injected 111In Dose Per Gram: Lungs ([2]; 4 Hours Post Injection, n = 4): 1.1 ± 0.3 % ID/g
- Percentage of Injected 111In Dose Per Gram: Muscle ([2]; 4 Hours Post Injection, n = 4): 2.9 ± 0.7 % ID/g
- Percentage of Injected 111In Dose Per Gram: Spleen ([2]; 4 Hours Post Injection, n = 4): 0.35 ± 0.11 % ID/g
- Percentage of Injected 111In Dose Per Gram: Stomach, Intestines & Contents ([2]; 4 Hours Post Injection, n = 4): 1.0 ± 0.2 % ID/g
- Percentage of Injected 111In Dose Per Gram: Tumor ([2]; 4 Hours Post Injection, n = 4): 6.8 ± 1.2 % ID/g
- Tumor/blood ratio ([2]; 4 Hours Post Injection, n = 4): 106 ± 15
- Tumor/kidney ratio ([2]; 4 Hours Post Injection, n = 4): 0.080 ± 0.012
- Tumor/liver ratio ([2]; 4 Hours Post Injection, n = 4): 3.3 ± 1.1
- Tumor/muscle ratio ([2]; 4 Hours Post Injection, n = 4): 2.5 ± 0.9
SMILES: Nc1nc2ncc(CNc3ccc(C(=O)N[C@@H](CCC(=O)NCCNC(=O)CN(CCN(CCN(CC(=O)[O-])CC(=O)[O-])CC(=O)[O-])CC(=O)[O-])C(=O)O)cc3)nc2c(=O)[nH]1.[111In] [^111In-DTPA-Folate, reference compound]
